According to US9926326B2, “Substituted thioxanthenone autophagy inhibitors” (THE CLEVELAND CLINIC FOUNDATION, priority 2014, dated 2018):

Legend:
[1] = test system: RL; experiment: 72 h MTT assay, RL; assay type: cell-based; settings: Homo sapiens, NHL
Procedure: (§1) Quantification of drug-induced cytotoxicity. Cell viability was assessed by MIT assay. Cells were seeded into 96-well microculture plates at […] per well and allowed to attach for 24 h. Cells were then treated with ROC-325 or HCQ for 72 h. Following drug treatment, MTT was added and cell viability was quantified using a BioTek (Winooski, Vt.) microplate reader. Pro-apoptotic effects following in vitro drug exposure were quantified by propidium iodide (PI) staining and fluorescence-activated cell sorting (FACS) analysis of sub-G0/G1 DNA content as previously described and by measurement of active caspase-3 by flow cytometry using a commercial kit (BD Biosciences, San Jose, Calif.). Mahalingam et al., Clin Cancer Res 2010; 16:141-53.

[2] = test system: IGROV-1; experiment: 72 h MTT assay, IGROV-1; assay type: cell-based; settings: Homo sapiens, IGROV-1, Ovarian
Procedure: as §1

[3] = test system: COLO-205; experiment: 72 h MTT assay, COLO-205; assay type: cell-based; settings: Homo sapiens, COLO-205, Colon
Procedure: as §1

[4] = test system: A498; experiment: 72 h MTT assay, A498; assay type: cell-based; settings: Homo sapiens, A498, Renal
Procedure: (§2) Cells and cell culture. A498, 786-0, Achn and Caki-2 cells were obtained from ATCC (Manassas. Va.). Cells were cultured with medium supplemented with 10% FBS at 37° C. with 5% CO2 as previously described. Swords et al., Blood 2010; 115:3796.800. Human normal renal proximal tubule epithelial cells (RPTEC) were purchased from Clonetics (Walkersville, Md.) and cultured in REGM media (REGM BulletKit, Clonetics). Cell lines were authenticated by the source banks using DNA profiling techniques and were used for this study in accordance with AACR guidelines.
as §1

[5] = test system: CFPAC-1; experiment: 72 h MTT assay, CFPAC-1; assay type: cell-based; settings: Homo sapiens, CFPAC-1, Pancreas
Procedure: as §1

[6] = test system: PC-3; experiment: 72 h MTT assay, PC-3; assay type: cell-based; settings: Homo sapiens, PC-3, Prostate
Procedure: as §1

[7] = test system: MCF-7; experiment: 72 h MTT assay, MCF-7; assay type: cell-based; settings: Homo sapiens, MCF7, MCF-7, Breast
Procedure: as §1

[8] = test system: A549; experiment: 72 h MTT assay, A549; assay type: cell-based; settings: Homo sapiens, A549, Lung
Procedure: as §1

[9] = test system: MiaPaCa-2; experiment: 72 h MTT assay, MiaPaCa-2; assay type: cell-based; settings: Homo sapiens, MIA PaCa-2, MiaPaCa-2, Pancreas
Procedure: as §1

[10] = test system: UACC-62; experiment: 72 h MTT assay, UACC-62; assay type: cell-based; settings: Homo sapiens, UACC-62, Melanoma
Procedure: as §1

[11] = test system: NCI-H69; experiment: 72 h MTT assay, NCI-H69; assay type: cell-based; settings: Homo sapiens, NCI-H69, Lung
Procedure: as §1

[12] = test system: DLD-1; experiment: 72 h MTT assay, DLD-1; assay type: cell-based; settings: Homo sapiens, DLD-1, Colon
Procedure: as §1

[13] = Carew et al., J Biol Chem 2011; cited from earlier work
[14] = test system: cathepsin D (CTSD); experiment: Cathepsin D expression, microarray and qRT-PCR; assay type: cell-based, human; settings: A498 and 786-0, 5 μM, 24 hours; confirmed by qRT-PCR
Procedure: Expression microarrays. RCC cells were treated with […] for 24 h. Total RNAs were isolated using the RNeasy Plus Mini Kit (Qiagen, Germantown, Md.) and treated with TURBO DNA-Free™ Kit (Applied Biosystems, Foster City, Calif.), 300 ng of total RNA per sample was amplified and hybridized to GeneChip® Human Gene 1.0 ST arrays (Affymetrix, Inc., Santa Clara, Calif.) according to the manufacturer's instructions. Affymetrix CEL files were imported into Partek® Genomics Suite™ 6.4 (Partek Inc., St. Louis. Mo.) using the default Partek normalization parameters and the robust multi-array average (RMA) analysis adjusted for probe sequence and GC content (GC-RMA). Data normalization was performed across all arrays using quantile normalization.
Quantitative real time polymerase chain reaction, cDNA from ROC-325 treated cells were used for relative quantification by RT-PCR analyses. First-strand cDNA synthesis was performed from 1 μg RNA in a 20 μl reaction mixture using the high-capacity eDNA Reverse Transcription Kit (Applied Biosystems, Foster City, Calif.). Cathepsin D (CTSD) and GAPDH transcripts were amplified using commercially available TaqMan® Gene expression assays (Applied Biosystems, Foster City, Calif.). Relative gene expression was calculated with the 2-Ct method using GAPDH as a housekeeping gene. Pfaffl M W., Nucleic Acids Res 2001; 29:e45.

[15] = test system: RCC cells; experiment: Apoptosis: active caspase-3 flow cytometry and PI-FACS DNA fragmentation; assay type: cell-based, human; settings: 48 hours
Procedure: as §1

[16] = test system: RCC cell lines (786-0, A498, Achn, and Caki-2); experiment: MTT cell viability in RCC cell lines; assay type: cell-based, human; settings: 72 hours
Procedure: as §2, §1

[17] = test system: 12 different human cancer cell lines; experiment: Direct comparison of in vitro anticancer effects in 12 cancer cell lines (MTT); assay type: cell-based; settings: all 12 models tested, 72 h MTT
Procedure: as §1

[18] = test system: LC3B; experiment: LC3B immunocytochemistry; assay type: cell-based, human; settings: 5 μM, 24 hours, A498 and 786-0
Procedure: Immunocytochemistry. Cells were plated on chamber slides and allowed to attach overnight. Cells were then treated for 24 h with ROC-325. Following drug treatment, cells were fixed with 4% paraformaldehyde, permeabilized using 0.2% triton-X-100, and incubated overnight with anti-LC3B antibody. Alexa Fluor 594 conjugated fluorescent secondary antibody was used to visualize protein localization. Dapi was utilized to stain the nucleus. Images were captured using an Olympus fluorescent microscope (Center Valley, Pa.) with a DP71 camera and a 60× objective. Image-Pro Plus software Version 6.2.1 (MediaCybernetics, Bethesda, Md.) was used for image acquisition.

[19] = test system: A498 and 786-O cells; experiment: Giemsa staining, vacuolization; assay type: cell-based, human; settings: 5 μM, 24 h
Procedure: Giemsa staining. Cells were plated in chamber slides as previously described and treated with ROC-325 for 24 h. Carew et al., J Biol Chem 2011; 286:6602-13. Following drug treatment, cells were washed with PBS and fixed in methanol for 5 minutes. Cells were then incubated for 1 h in Giemsa stain diluted 1:20 with deionized water. Cells were rinsed with water and imaged using an Olympus fluorescent microscope. Image-Pro Plus software Version 6.2.1 was used for image acquisition.

[20] = test system: 786-O and A498 cells; experiment: Acridine orange staining of acidic lysosomes; assay type: cell-based, human; settings: 24 h
Procedure: Acridine orange staining. Acidic lysosomes were visualized by acridine orange staining as previously described. Carew et al., J Biol Chem 2011; 286:6602-13. After treatment with ROC-325 for 24 h, cells were stained with 1 μM acridine orange for 15 minutes at 37° C. Cells were washed with PBS and images were captured using an Olympus fluorescent microscope. Acidic lysosomes appear as orange fluorescent cytoplasmic vesicles. Quantification of 5 random fields of acridine orange intensity and image acquisition were performed using Image-Pro Plus software Version 6.2.1.

[21] = test system: LC3B, p62, cathepsin D; experiment: Immunoblotting of autophagy markers and autophagic flux with bafilomycin A1; assay type: cell-based, human
Procedure: Immunoblotting. Renal cancer cells were incubated with ROC-325 for 24 h. Cells were harvested and were then lysed as previously described. Nawrocki S T, Carew J S, Maclean K H, Courage J F, Huang P, Houghton J A, Cleveland J L, Giles F J, McConkey D J. Myc regulates aggresome formation, the induction of Noxa, and apoptosis in response to the combination of bortezomib and SAHA. Blood 2008; 112:2917-26. Approximately 50 μg of total cellular protein from each sample were subjected to SDS-PAGE, proteins were transferred to nitrocellulose membranes, and the membranes were blocked with 5% nonfat milk in a Tris-buffered saline solution containing 0.1% Tween-20 for 1 h. The blots were then probed overnight at 4° C. with primary antibodies, washed, and probed with species-specific secondary antibodies coupled to horseradish peroxidase. Immunoreactive material was detected by enhanced chemiluminescence (West Pico, Pierce, Inc., […]. Ill.).

[22] = test system: 786-0 RCC xenografts; experiment: In vivo evaluation in 786-O RCC xenografts; parameters: species or system nude mice
Procedure: In vivo evaluation of ROC-325 and HCQ. 786-O renal cancer cells (5×106) were suspended in a mixture of HBSS and Matrigel and subcutaneously implanted into female nude mice (BALB/c background). Tumor-bearing animals from each cell line xenograft were randomized into treatment groups. Mice were treated with vehicle (water), ROC-325 (25, 40, and 50 mg/kg PO), or HCQ (60 mg/kg IP) QD×5 for 6 weeks. Mice were monitored daily and tumor volumes were measured twice weekly. At study completion, tumors from representative animals were excised from each group, […], and paraffin-embedded for immunohistochemical analysis.
Immunohistochemistry. Paraffin-embedded tumor sections were deparaffinized in xylene, exposed to a graded series of alcohol, and rehydrated in PBS (pH 7.5). Heat-induced epitope retrieval on paraffin-embedded sections and probing with specific antibodies was conducted as previously described. Nawrocki et al., Clin Cancer Res 2013; 19:3577-90. Positive reactions were visualized using 3,3′-diaminobenzidine (Dako, Glostrup, Denmark). Images were captured using an Olympus fluorescent microscope (Center Valley. Pa.) with a DP71 camera and a 20× objective. Image-Pro Plus software Version 6.2.1 (MediaCybernetics, Bethesda, Md.) was used for image acquisition. ImageJ software was used for quantification of LC3B and p62 levels by densitometric analysis of five random fields containing viable tumor cells. Quantification of cleaved caspase-3 was conducted by counting the number of positive cells in five random fields as previously described. Carew et al., Cancer Res 2008; 68:4783-90.

[23] = test system: normal renal proximal tubule endothelial cells (RPTEC); experiment: MTT cell viability in normal renal cells; assay type: cell-based, human; settings: 72 hours
Procedure: as §2, §1

[24] = test system: RCC cells; experiment: Transmission electron microscopy; assay type: cell-based, human; settings: 5 μM, 24 h
Procedure: Transmission electron microscopy. Transmission electron microscopy of cells was performed as previously described. Carew et al., J Cell Mol Med 2010 Oct.; 14(10):2448-59. RCC cells were treated with ROC-325 for 24 h and harvested for imaging. Briefly, sections were cut in an LKB Ultracut microtome (Leica. Deerfield, Ill.), stained with uranyl acetate and lead citrate, and examined in a JEM 1230 transmission electron microscope (JEOL, USA, Inc., Peabody, Mass.). Images were captured using the AMT Imaging System (Advanced Microscopy Techniques Corp, Danvers. Mass.).

Row | Structure (SMILES) | IC50 [1] | IC50 [2] | IC50 [3] | IC50 [4] | IC50 [5] | IC50 [6] | IC50 [7] | IC50 [8] | IC50 [9] | IC50 [10] | IC50 [11] | IC50 [12] | also measured
1 | CCN(CCO)CCCC(C)Nc1ccnc2cc(Cl)ccc12 (stereo not drawn) [HCQ, hydroxychloroquine, reference compound] | 35 µM | > 75 µM | 51 µM | 52 µM | > 75 µM | 58 µM | > 75 µM | > 75 µM | > 75 µM | > 75 µM | 54 µM | > 75 µM | 
2 | CCN(CC)CCNc1ccc(C)c2sc3ccccc3c(=O)c12 [LUC, lucanthone] |  |  |  |  |  |  |  |  |  |  |  |  | anticancer activity compared to CQ [13]: approximately 10 ×
3 | Cc1ccc(NCCN(C)CCNc2ccnc3cc(Cl)ccc23)c2c(=O)c3ccccc3sc12 [ROC-325] | 8.4 µM | 11 µM | 5.4 µM | 4.9 µM | 4.6 µM | 11 µM | 8.2 µM | 11 µM | 5.8 µM | 6 µM | 5 µM | 7.4 µM | CTSD levels [14]: highly significant increase; percentages of cells with active caspase-3 expression [15]: dose-dependent increases; percentages of cells with fragmented DNA ([15]; PI-FACS): dose-dependent increases; more effective at diminishing RCC cell viability than HCQ [16]: approximately 10 fold; lower IC50s than HCQ [17]: approximately 10 fold; LC3B distribution and levels [18]: formation of LC3B punctae and a robust increase in LC3B levels; cytosolic vacuolization [19]: induced cytosolic vacuolization; acridine orange fluorescence (lysosomal membrane permeability) [20]: significant loss of acridine orange fluorescence; autophagic flux ([21]; 786-0, alone and combined with bafilomycin A1): effectively inhibited autophagic flux; LC3B expression (immunoblotting) ([21]; A498 and 786-0, 24 h): dose-dependent increase; levels of p62 and cathepsin D (immunoblotting) ([21]; A498 and 786-0, 24 h): corresponding increase; tolerability ([22]; 25, 40, or 50 mg/kg PO, nude mice): well tolerated; disease progression (tumor volume) ([22]; 25, 40, or 50 mg/kg QD PO, 786-0 xenografts in nude mice): significant, dose-dependent inhibition of disease progression; LC3B in tumors (immunohistochemistry) ([22]; 786-0 xenograft specimens): significant, dose-dependent increases; apoptosis in tumors (cleaved caspase-3 immunohistochemistry) ([22]; 786-0 xenograft specimens): increased apoptosis; p62 in tumors (immunohistochemistry) ([22]; 786-0 xenograft specimens): significant, dose-dependent increases; mean body weight ([22]; highest dose, end of study (Day 46)): very modest, non-significant reduction; oral bioavailability ([22]; mice, PO): orally bioavailable; cell viability of normal renal cells [23]: marginal reduction in cell viability; autophagosomes [24]: promoted the accumulation of autophagosomes
